Source: publication PMC8791448 (ACS infectious diseases, 2021)

Target: T1, ecLpxC (UDP-3-O-acyl-N-acetylglucosamine deacetylase) (Escherichia coli, UniProt P0A725)
T1 sequence (P0A725 1-305): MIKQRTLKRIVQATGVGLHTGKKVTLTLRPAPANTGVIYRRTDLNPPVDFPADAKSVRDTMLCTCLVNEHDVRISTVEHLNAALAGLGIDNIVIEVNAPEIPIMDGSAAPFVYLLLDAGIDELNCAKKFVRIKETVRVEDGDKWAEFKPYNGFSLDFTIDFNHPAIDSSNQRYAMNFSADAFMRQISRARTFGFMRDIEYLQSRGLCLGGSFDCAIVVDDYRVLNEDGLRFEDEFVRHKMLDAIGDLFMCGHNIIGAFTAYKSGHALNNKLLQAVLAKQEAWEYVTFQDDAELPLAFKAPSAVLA
Test: residence time on purified ecLpxC by displacement with fluorescent ligand PT900
Assay type: binding
Details: read-out: tR (min)^b

C[C@@H](O)[C@H](NC(=O)c1ccc(C#Cc2ccc(CN3CCOCC3)cc2)cc1)C(=O)NO [CHIR-090]
residence time: 66 ± 30 min
